In the supplement of paper PMC5908809:

Key:
[1] = system: normal NK cells expanded with K562-aAPC; assay: percent inhibition of viability; higher = more inhibition; conditions: 72 h, IL-2 2.5 ng/mL
Procedure: (§1)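 Drug sensitivity and resistance testing on K562-aAPC-expanded normal NK cells: 5 concentrations (10-fold steps over a 10,000-fold range), 72 h at 37 °C, viability by CellTiter-Glo normalised to DMSO and benzethonium chloride controls; DSS from the fitted curve.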

DERL-7 (IL-2 2.5 ng/mL) [2] = assay: as above; conditions: 72 h
IMC-1 (IL-2 20 ng/mL) [3] = assay: as above; conditions: 72 h
KAI3 (IL-2 2.5 ng/mL) [4] = assay: as above; conditions: 72 h
KHYG-1 (IL-2 2.5 ng/mL) [5] = assay: as above; conditions: 72 h
NK-92 (IL-2 2.5 ng/mL) [6] = assay: as above; conditions: 72 h
NK-YS (IL-2 2.5 ng/mL) [7] = assay: as above; conditions: 72 h
NKL (IL-2 2.5 ng/mL) [8] = assay: as above; conditions: 72 h
SNK-6 (IL-2 2.5 ng/mL) [9] = assay: as above; conditions: 72 h
YT (IL-2 2.5 ng/mL) [10] = assay: as above; conditions: 72 h
[11] = system: normal primary NK cells, pool 1 (3 donors) (IL-2 2.5 ng/mL); assay: as above; conditions: 72 h
[12] = system: normal primary NK cells, pool 1 (3 donors), resting (IL-2 0 ng/mL); assay: as above; conditions: 72 h
[13] = system: normal primary NK cells, pool 2 (3 donors) (IL-2 2.5 ng/mL); assay: as above; conditions: 72 h
[14] = system: normal primary NK cells, pool 3 (3 donors) (IL-2 2.5 ng/mL); assay: as above; conditions: 72 h
[15] = system: normal NK cells expanded with K562-aAPC; assay: drug sensitivity score (DSS) (DSS units); higher = more sensitive; extreme values may be limits of the assay; conditions: 72 h; IL-2 2.5 ng/mL
Procedure: as §1

DERL-7 (IL-2 2.5 ng/mL) [16] = assay: as above; conditions: 72 h
IMC-1 (IL-2 20 ng/mL) [17] = assay: as above; conditions: 72 h
KAI3 (IL-2 2.5 ng/mL) [18] = assay: as above; conditions: 72 h
KHYG-1 (IL-2 2.5 ng/mL) [19] = assay: as above; conditions: 72 h
NK-92 (IL-2 2.5 ng/mL) [20] = assay: as above; conditions: 72 h
NK-YS (IL-2 2.5 ng/mL) [21] = assay: as above; conditions: 72 h
NKL (IL-2 2.5 ng/mL) [22] = assay: as above; conditions: 72 h
SNK-6 (IL-2 2.5 ng/mL) [23] = assay: as above; conditions: 72 h
YT (IL-2 2.5 ng/mL) [24] = assay: as above; conditions: 72 h
[25] = system: normal primary NK cells, pool 1 (3 donors) (IL-2 2.5 ng/mL); assay: as above; conditions: 72 h
[26] = system: normal primary NK cells, pool 1 (3 donors), resting (IL-2 0 ng/mL); assay: as above; conditions: 72 h
[27] = system: normal primary NK cells, pool 2 (3 donors) (IL-2 2.5 ng/mL); assay: as above; conditions: 72 h
[28] = system: normal primary NK cells, pool 3 (3 donors) (IL-2 2.5 ng/mL); assay: as above; conditions: 72 h

O=C(NC1CCNCC1)c1n[nH]cc1NC(=O)c1c(Cl)cccc1Cl [AT7519] (max concentration tested 10000 nM)
percent inhibition of viability [%]
Conditions | 1 nM | 10 nM | 100 nM | 1000 nM | 10000 nM
DERL-7 (IL-2 2.5 ng/mL) [2] | 3.68 | -3.37 | -6.6 | 99.2 | 100
IMC-1 (IL-2 20 ng/mL) [3] | 5.46 | 1.26 | -0.14 | 96.8 | 96.4
KAI3 (IL-2 2.5 ng/mL) [4] | 1.05 | -1.69 | 4.7 | 86.2 | 94
KHYG-1 (IL-2 2.5 ng/mL) [5] | -2.18 | -4.7 | 1.67 | 61.9 | 96.3
NK-92 (IL-2 2.5 ng/mL) [6] | -10.5 | -1.16 | -2.58 | 32.2 | 90.7
NK-YS (IL-2 2.5 ng/mL) [7] | -2.23 | -4.04 | 9.45 | 96.6 | 93.7
NKL (IL-2 2.5 ng/mL) [8] | 1.32 | 5.88 | 13.8 | 102 | 97.5
SNK-6 (IL-2 2.5 ng/mL) [9] | 6.43 | -7.68 | 0.7 | 50.8 | 48.4
YT (IL-2 2.5 ng/mL) [10] | 0.46 | -3.64 | 6.82 | 79.9 | 97
[1] | -3.7 | 0.1 | -4.47 | 99.1 | 100
[11] | -13.5 | -8.03 | 6.78 | 96.9 | 97.9
[12] | -42.2 | -37.4 | -20.6 | 90.1 | 89.6
[13] | -5.51 | -3.1 | 0.18 | 95.2 | 95.8
[14] | -13.9 | -11.2 | -5.85 | 94.7 | 98.8

Conditions | drug sensitivity score
DERL-7 (IL-2 2.5 ng/mL) [16] | 17.3
IMC-1 (IL-2 20 ng/mL) [17] | 17.4
KAI3 (IL-2 2.5 ng/mL) [18] | 16.3
KHYG-1 (IL-2 2.5 ng/mL) [19] | 12.7
NK-92 (IL-2 2.5 ng/mL) [20] | 9.5
NK-YS (IL-2 2.5 ng/mL) [21] | 18.9
NKL (IL-2 2.5 ng/mL) [22] | 20.3
SNK-6 (IL-2 2.5 ng/mL) [23] | 9.33
YT (IL-2 2.5 ng/mL) [24] | 15.6
[15] | 17.5
[25] | 18.6
[26] | 15.1
[27] | 17.2
[28] | 16.8
